Measured values: patent publication US10662205B2, “Cyclic boronic acid ester derivatives and therapeutic uses thereof” (priority 2014, dated 2020)

Key:
KP1009 (CTX-M-15) [1] = assay: organism not typed; format: cell-based; conditions: read-out: Aztreonam MIC
KP1004 (KPC-2) [2] = assay: organism not typed; format: cell-based; conditions: read-out: Aztreonam MIC
ec302 (TEM-10) [3] = assay: Aztreonam MIC of test strain; format: cell-based
ec308 (SHV-5) [4] = assay: Aztreonam MIC of test strain; format: cell-based
KP1005 (CTX-M-14) [5] = assay: organism not typed; format: cell-based; conditions: read-out: Aztreonam MIC
EC1010 (CMY-6) [6] = assay: Aztreonam MIC of test strain; format: cell-based
KP1010 (SHV-12) [7] = assay: Aztreonam MIC of test strain; format: cell-based
PAM1154/KPC-2 [8] = assay: Biapenem MIC; format: cell-based; conditions: Pseudomonas aeruginosa; PAM1154 with KPC-2 plasmid
Procedure: (§1) Efflux of BLIs from Pseudomonas aeruginosa by the MexAB-OprM efflux pump was also evaluated. The plasmid expressing the gene encoding KPC-2 was introduced into two strains of P. aeruginosa, PAM1032 and PAM1154 that overexpressed or lacked MexAB-OprM, respectively. Due to expression of KPC-2 both strains became resistant to biapenem. […] Potency of BLIs to potentiate biapenem in these strains was determined. […] The ratio of MPC64 values for each BLI in PAM1032/KPC-2 (efflux proficient) and PAM1154/KPC-2 (efflux deficient) was determined to generate the Efflux Index (EI).

PAM1032/KPC-2 [9] = assay: Biapenem MIC; format: cell-based; conditions: Pseudomonas aeruginosa; PAM1032 with KPC-2 plasmid
Procedure: as §1

KP1086 (OXA-48) [10] = assay: Biapenem MIC of test strain; conditions: read-out: Biapenem MIC
KP1004 (KPC-2) [11] = assay: Biapenem MIC of test strain; conditions: read-out: Biapenem MIC
ec302 (TEM-10) [12] = assay: Tigemonam potentiation (MPC@4); format: cell-based; conditions: tigemonam 4 μg/mL
EC1010 (CMY-6) [13] = assay: Aztreonam potentiation (MPC@4); format: cell-based; conditions: aztreonam 4 μg/mL
EC1010 (CMY-6) [14] = assay: Tigemonam potentiation (MPC@4); format: cell-based; conditions: tigemonam 4 μg/mL; EC1010, CMY-6
KP1009 (CTX-M-15) [15] = assay: Aztreonam potentiation (MPC@4); format: cell-based; conditions: aztreonam 4 μg/mL
KP1005 (CTX-M-14) [16] = assay: Aztreonam potentiation (MPC@4); format: cell-based; conditions: aztreonam 4 μg/mL
KP1010 (SHV-12) [17] = assay: Tigemonam potentiation (MPC@4); format: cell-based
KP1004 (KPC-2) [18] = assay: Biapenem potentiation (MPC@1); conditions: biapenem 1 μg/mL
ec308 (SHV-5) [19] = assay: Aztreonam potentiation (MPC@4); format: cell-based; conditions: aztreonam 4 μg/mL
P99 = P99 (Enterobacter cloacae, UniProt P05364); assay: biochemical; conditions: nitrocefin reporter substrate; 10 min preincubation; read-out: Ki P99, NCF
P99, sequence (P05364 21-381): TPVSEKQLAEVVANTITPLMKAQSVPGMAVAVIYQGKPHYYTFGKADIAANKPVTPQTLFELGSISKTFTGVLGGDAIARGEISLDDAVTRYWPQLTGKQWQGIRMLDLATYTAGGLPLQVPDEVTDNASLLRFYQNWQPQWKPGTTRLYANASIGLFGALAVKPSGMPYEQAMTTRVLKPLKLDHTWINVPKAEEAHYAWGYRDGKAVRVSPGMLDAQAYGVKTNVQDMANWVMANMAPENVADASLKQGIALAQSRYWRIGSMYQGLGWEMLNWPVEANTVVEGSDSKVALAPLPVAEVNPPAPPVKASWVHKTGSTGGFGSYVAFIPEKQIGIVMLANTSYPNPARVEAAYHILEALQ
Procedure: (§2) Ki values of inhibition of purified class A, C and D enzymes were determined spectrophotometrically using nitrocefin as reporter substrate. Purified enzymes were mixed with various concentrations of inhibitors in reaction buffer and incubated for 10 min at room temperature. Nitrocefin was added and substrate cleavage profiles were recorded at 490 nm every 10 sec for 10 min.

ECL1002 [20] = assay: Tigemonam potentiation (MPC@4); format: cell-based; conditions: tigemonam 4 μg/mL
KPC-2 = KPC-2 (Klebsiella pneumoniae, UniProt Q9F663); assay: Inhibition of nitrocefin cleavage by purified enzyme (Ki); format: biochemical; conditions: nitrocefin reporter substrate; 10 min preincubation; read-out: Ki KPC-2, NCF
KPC-2, sequence (Q9F663 25-293, looked up, species assumed): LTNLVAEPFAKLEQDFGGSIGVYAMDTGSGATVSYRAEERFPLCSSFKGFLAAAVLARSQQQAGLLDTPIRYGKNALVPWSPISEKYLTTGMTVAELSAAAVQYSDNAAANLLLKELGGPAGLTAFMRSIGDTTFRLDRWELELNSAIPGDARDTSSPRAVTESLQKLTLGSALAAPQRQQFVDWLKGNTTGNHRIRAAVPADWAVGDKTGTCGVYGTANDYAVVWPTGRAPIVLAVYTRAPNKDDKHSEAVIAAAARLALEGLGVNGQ
Procedure: as §2, with “min. These experiments confirmed that the described compounds are inhibitors with a broad-spectrum of activity towards various β-lactamases.” for “min.”

CMY-2 = CMY-2 (Klebsiella pneumoniae, UniProt Q48434); assay: as above; format: biochemical; conditions: nitrocefin reporter substrate; 10 min preincubation; read-out: Ki CMY-2, NCF
CMY-2, sequence (Q48434 21-381, species assumed): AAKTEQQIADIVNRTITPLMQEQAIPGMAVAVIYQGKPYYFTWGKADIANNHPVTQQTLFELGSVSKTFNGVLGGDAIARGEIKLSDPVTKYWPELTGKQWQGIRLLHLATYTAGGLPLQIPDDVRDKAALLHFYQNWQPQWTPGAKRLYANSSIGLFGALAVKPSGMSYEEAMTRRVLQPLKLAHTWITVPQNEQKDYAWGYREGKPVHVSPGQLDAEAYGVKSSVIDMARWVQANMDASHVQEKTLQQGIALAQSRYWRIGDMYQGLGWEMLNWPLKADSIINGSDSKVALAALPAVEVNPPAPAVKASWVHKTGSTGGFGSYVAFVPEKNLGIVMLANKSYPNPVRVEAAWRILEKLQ
Procedure: as §2, with “min. These experiments confirmed that the described compounds are inhibitors with a broad-spectrum of activity towards various β-lactamases.” for “min.”

OXA-48 = OXA-48 (Klebsiella pneumoniae, UniProt Q6XEC0); assay: as above; format: biochemical; conditions: nitrocefin reporter substrate; 10 min preincubation; read-out: Ki OXA-48, NCF
OXA-48, sequence (Q6XEC0 23-265, looked up, species assumed): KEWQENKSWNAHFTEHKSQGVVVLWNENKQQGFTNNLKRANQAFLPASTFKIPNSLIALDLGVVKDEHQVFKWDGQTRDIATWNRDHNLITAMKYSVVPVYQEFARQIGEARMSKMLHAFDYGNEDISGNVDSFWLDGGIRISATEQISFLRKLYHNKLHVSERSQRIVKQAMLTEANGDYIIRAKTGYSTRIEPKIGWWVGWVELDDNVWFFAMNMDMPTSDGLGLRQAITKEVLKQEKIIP
Procedure: as §2, with “min. These experiments confirmed that the described compounds are inhibitors with a broad-spectrum of activity towards various β-lactamases.” for “min.”

CTX-M-14 = CTX-M-14 (Escherichia coli, UniProt Q9L5C7); assay: as above; format: biochemical; conditions: nitrocefin reporter substrate; 10 min preincubation; read-out: Ki CTX-M-14, NCF
CTX-M-14, sequence (Q9L5C7 29-291): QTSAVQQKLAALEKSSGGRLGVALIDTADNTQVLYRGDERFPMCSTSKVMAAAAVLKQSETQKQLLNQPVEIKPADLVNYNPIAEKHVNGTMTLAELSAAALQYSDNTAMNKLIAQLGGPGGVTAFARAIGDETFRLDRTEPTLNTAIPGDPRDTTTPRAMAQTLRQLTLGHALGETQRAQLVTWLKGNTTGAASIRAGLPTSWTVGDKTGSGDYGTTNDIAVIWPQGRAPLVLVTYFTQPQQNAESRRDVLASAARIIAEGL
Procedure: as §2

SHV-12 = SHV-12 (Klebsiella pneumoniae, UniProt P0AD64, E235K/G234S/L31Q); assay: as above; format: biochemical
SHV-12, sequence (P0AD64 22-286 L31Q/G234S/E235K): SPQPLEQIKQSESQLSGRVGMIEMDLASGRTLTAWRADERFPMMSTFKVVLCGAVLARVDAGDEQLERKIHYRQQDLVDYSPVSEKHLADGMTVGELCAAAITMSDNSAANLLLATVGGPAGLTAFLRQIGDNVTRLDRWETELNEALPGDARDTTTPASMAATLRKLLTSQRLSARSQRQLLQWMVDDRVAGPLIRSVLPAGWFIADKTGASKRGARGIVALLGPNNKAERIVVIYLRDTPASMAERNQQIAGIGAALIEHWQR
Procedure: as §2

PAM1032/KPC-2 [21] = assay: Biapenem potentiation MPC64, efflux proficient strain; format: cell-based, Pseudomonas aeruginosa; parameters: unit not given here; conditions: efflux proficient (MexAB-OprM overexpressed); decrease biapenem MIC 64-fold, 32 to 0.5 μg/ml
Procedure: as §1

KP1010 (SHV-12) [22] = assay: Aztreonam potentiation (MPC@4); format: cell-based; conditions: aztreonam 4 μg/mL
ec308 (SHV-5) [23] = assay: Tigemonam potentiation (MPC@4); format: cell-based; conditions: tigemonam 4 μg/mL
KP1009 (CTX-M-15) [24] = assay: Tigemonam potentiation (MPC@4); format: cell-based
KP1005 (CTX-M-14) [25] = assay: Tigemonam potentiation (MPC@4); format: cell-based; conditions: tigemonam 4 μg/mL
ECL1002 [26] = assay: Aztreonam potentiation (MPC@4); format: cell-based; conditions: aztreonam 4 μg/mL
KP1086 (OXA-48) [27] = assay: Biapenem potentiation (MPC@1); conditions: biapenem 1 μg/mL
Oral pharmacokinetics = format: in vivo; conditions: rat, plasma; rats, single oral dose 30 mg/kg, n=3; read-out: Range of % Oral Bioavailability
Procedure: Several compounds were tested for their oral pharmacokinetics. Rats (n=3 per compound) were administered a single oral dose. Oral doses were administered as a bolus. Plasma (˜0.3 mL) samples were collected from each rat at designated time points up to 24 hours. Blood samples were centrifuged within 5 min of collection at 12000 g for 5 min to obtain plasma. The plasma samples were stored at −80° C. until analyzed. Data were analyzed using WinNonlin.

PAM1154/KPC-2 [28] = assay: Biapenem potentiation MPC64, efflux deficient strain; format: cell-based, Pseudomonas aeruginosa; parameters: unit not given here; conditions: efflux deficient (lacks MexAB-OprM); decrease biapenem MIC 64-fold, 32 to 0.5 μg/ml
Procedure: as §1

KP1004 (KPC-2) [29] = assay: Aztreonam potentiation (MPC@4); format: cell-based; conditions: aztreonam 4 μg/mL
ec302 (TEM-10) [30] = assay: Aztreonam potentiation (MPC@4); format: cell-based; conditions: aztreonam 4 μg/mL
ec302 (TEM-10) [31] = assay: Tigemonam MIC of test strain
KP1009 (CTX-M-15) [32] = assay: Tigemonam MIC of test strain
KP1010 (SHV-12) [33] = assay: Tigemonam MIC of test strain
KP1005 (CTX-M-14) [34] = assay: Tigemonam MIC of test strain
EC1010 (CMY-6) [35] = assay: Tigemonam MIC of test strain
ECL1002 [36] = assay: Tigemonam MIC of test strain
ec308 (SHV-5) [37] = assay: Tigemonam MIC of test strain

C[C@H]1[C@H](NC(=O)/C(=N\OC(C)(C)C(=O)O)c2csc(N)n2)C(=O)N1S(=O)(=O)O [Aztreonam]
MIC (KP1009 (CTX-M-15) [1]): > 128 µg/mL
MIC (KP1004 (KPC-2) [2]): > 128 µg/mL
MIC (ec302 (TEM-10) [3]): 128 µg/mL
MIC (ec308 (SHV-5) [4]): > 128 µg/mL
MIC (KP1005 (CTX-M-14) [5]): > 128 µg/mL
MIC (EC1010 (CMY-6) [6]): > 128 µg/mL
MIC (KP1010 (SHV-12) [7]): 64 µg/mL

C[C@@H](O)[C@H]1C(=O)N2C(C(=O)[O-])=C(SC3Cn4cnc[n+]4C3)[C@H](C)[C@H]12 (some centres unmarked) [Biapenem]
MIC (PAM1154/KPC-2 [8]): 32 µg/mL
MIC (PAM1032/KPC-2 [9]): 32 µg/mL
MIC (KP1086 (OXA-48) [10]): 16 µg/mL
MIC (KP1004 (KPC-2) [11]): 32 µg/mL

Nc1nnc(SCC(=O)N[C@H]2CC=C[C@@H]3CC(=O)OB2O3)s1 [Compound 6, 2-(5-AMINO-1,3,4-THIADIAZOL-2-YLTHIO)-N-((2R,6S)-8-OXO-9,10-DIOXA-1-BORABICYCLO[4.3.1]DEC-4-EN-2-YL)ACETAMIDE]
MPC@4 tigemonam potentiation (ec302 (TEM-10) [12]): Y (Y = 5 μg/mL < MPC@4 ≤ 20 μg/mL)
MPC@4 aztreonam potentiation (EC1010 (CMY-6) [13]): X (X = MPC@4 ≤ 5 μg/mL)
MPC@4 tigemonam potentiation (EC1010 (CMY-6) [14]): X (X = MPC@4 ≤ 5 μg/mL)
MPC@4 aztreonam potentiation (KP1009 (CTX-M-15) [15]): X (X = MPC@4 ≤ 5 μg/mL)
MPC@4 aztreonam potentiation (KP1005 (CTX-M-14) [16]): X (X = MPC@4 ≤ 5 μg/mL)
MPC@4 tigemonam potentiation (KP1010 (SHV-12) [17]): X (key: X = MPC@4 ≤ 5 μg/mL; Y = 5 μg/mL < MPC@4 ≤ 20 μg/mL; Z = MPC@4 > 20 μg/mL)
MPC@1 biapenem potentiation (KP1004 (KPC-2) [18]): X (X = MPC@1 ≤ 5 μg/mL)
MPC@4 aztreonam potentiation (ec308 (SHV-5) [19]): X (X = MPC@4 ≤ 5 μg/mL)
Ki (P99): < 100 nM
MPC@4 tigemonam potentiation (ECL1002 [20]): X (X = MPC@4 ≤ 5 μg/mL)
Ki (KPC-2): 100 to 1000 nM
Ki (CMY-2): < 100 nM
Ki (OXA-48): 100 to 1000 nM
Ki (CTX-M-14): < 100 nM
Ki (SHV-12): < 100 nM
PAM1032/KPC-2 Biapenem MPC64 (PAM1032/KPC-2 [21]): 40
MPC@4 aztreonam potentiation (KP1010 (SHV-12) [22]): X (X = MPC@4 ≤ 5 μg/mL)
MPC@4 tigemonam potentiation (ec308 (SHV-5) [23]): X (X = MPC@4 ≤ 5 μg/mL)
MPC@4 tigemonam potentiation (KP1009 (CTX-M-15) [24]): X (key: X = MPC@4 ≤ 5 μg/mL; Y = 5 μg/mL < MPC@4 ≤ 20 μg/mL; Z = MPC@4 > 20 μg/mL)
MPC@4 tigemonam potentiation (KP1005 (CTX-M-14) [25]): X (X = MPC@4 ≤ 5 μg/mL)
MPC@4 aztreonam potentiation (ECL1002 [26]): X (X = MPC@4 ≤ 5 μg/mL)
MPC@1 biapenem potentiation (KP1086 (OXA-48) [27]): Z (Z = MPC@1 > 20 μg/mL)
bioavailability (Oral pharmacokinetics): 2 to 4%
PAM1154/KPC-2 Biapenem MPC64 (PAM1154/KPC-2 [28]): 5
MPC@4 aztreonam potentiation (KP1004 (KPC-2) [29]): X (X = MPC@4 ≤ 5 μg/mL)
MPC@4 aztreonam potentiation (ec302 (TEM-10) [30]): X (X = MPC@4 ≤ 5 μg/mL)

CC1(C)[C@H](NC(=O)/C(=N\OCC(=O)O)c2csc(N)n2)C(=O)N1OS(=O)(=O)O [Tigemonam]
Tigemonam MIC (ec302 (TEM-10) [31]): >64 µg/mL
Tigemonam MIC (KP1009 (CTX-M-15) [32]): >64 µg/mL
Tigemonam MIC (KP1010 (SHV-12) [33]): >64 µg/mL
Tigemonam MIC (KP1005 (CTX-M-14) [34]): >64 µg/mL
Tigemonam MIC (EC1010 (CMY-6) [35]): 16 µg/mL
Tigemonam MIC (ECL1002 [36]): 32 µg/mL
Tigemonam MIC (ec308 (SHV-5) [37]): >64 µg/mL
